Source: patent publication US8247211B2, “Glycopeptide antibiotics” (American Cyanamid Company, priority 2001, dated 2012)
Converted amounts (≈) assume the structure as drawn.

Legend:
Assay in all cases: In vitro antibacterial evaluation: minimum inhibitory concentration (MIC), broth dilution method
Assay type in all cases: cell-based
Enterococcus sp. = test system: Enterococcus sp.
Method: (§1) The minimum inhibitory concentration (MIC), the lowest concentration of the antibiotic which inhibits growth of the test organism, is determined by the broth dilution method using Muller-Hinton II […] (Baltimore Biological Laboratories) following the recommendations of the National Committee for Clinical Laboratory Standards [Methods for dilution antimicrobial susceptibility tests for bacteria that grow aerobically, approved standard M7-A2, National Committee for Clinical Laboratory Standards, Villanova, Pa].
(§2) An inoculum level of 5×10^5 CFU/mL, and a range of antibiotic concentrations (64-0.06 μg/mL) is used. […] The test organisms include a spectrum of Gram-positive bacteria comprised of Staphylococcus sp., Streptococcus sp. and Enterococcus sp. These organisms include recent clinical isolates that are resistant to methicillin, penicillin and/or vancomycin.

Escherichia coli = test system: Escherichia coli
Method: as §1, §2

Staphylococcus sp. = settings: broth dilution, 18 hours at 35° C.
Method: as §1, §2

Streptococcus sp. = test system: Streptococcus sp.
Method: as §1, §2

- MIC Enterococcus faecalis (ATCC 29212) (Enterococcus sp.; strain ATCC 29212): 32 µg/mL (≈ 22.2 µM)
- MIC Enterococcus faecalis (GC 2242) (Enterococcus sp.; strain GC 2242): 16 µg/mL (≈ 11.1 µM)
- MIC Enterococcus faecium (GC 2243) (Enterococcus sp.; strain GC 2243): 32 µg/mL (≈ 22.2 µM)
- MIC Enterococcus faecalis (GC 2691) (Enterococcus sp.; strain GC 2691): 32 µg/mL (≈ 22.2 µM)
- MIC Enterococcus faecalis (GC 3059) (Enterococcus sp.; strain GC 3059): 32 µg/mL (≈ 22.2 µM)
- MIC Enterococcus faecalis (GC 4552) (Enterococcus sp.; strain GC 4552): 32 µg/mL (≈ 22.2 µM)
- MIC Enterococcus faecalis (GC 4553) (Enterococcus sp.; strain GC 4553): 32 µg/mL (≈ 22.2 µM)
- MIC Enterococcus faecalis (GC 4554) (Enterococcus sp.; strain GC 4554): 32 µg/mL (≈ 22.2 µM)
- MIC Enterococcus faecium (GC 4556) (Enterococcus sp.; strain GC 4556): 32 µg/mL (≈ 22.2 µM)
- MIC Enterococcus faecium (GC 4557) (Enterococcus sp.; strain GC 4557): 8 µg/mL (≈ 5.55 µM)
- MIC Enterococcus avium (GC 4558) (Enterococcus sp.; strain GC 4558): 32 µg/mL (≈ 22.2 µM)
- MIC Enterococcus faecalis (GC 6189) (Enterococcus sp.; strain GC 6189): 64 µg/mL (≈ 44.4 µM)
- MIC Escherichia coli (ATCC 25922) (Escherichia coli; strain ATCC 25922): >64 µg/mL
- MIC Escherichia coli (GC 4559) (Escherichia coli; strain GC 4559): >64 µg/mL
- MIC Escherichi coli (GC 4560) (Escherichia coli; strain GC 4560): 2 µg/mL (≈ 1.39 µM)
- MIC Coagulase Negative Staphylococcus (GC 4547) (Staphylococcus sp.; 5×10^5 CFU/mL): 4 µg/mL (≈ 2.77 µM)
- MIC Coagulase Negative Staphylococcus (GC 4548) (Staphylococcus sp.; 5×10^5 CFU/mL): 4 µg/mL (≈ 2.77 µM)
- MIC Coagulase Negative Staphylococcus (GC 4549) (Staphylococcus sp.; 5×10^5 CFU/mL): 2 µg/mL (≈ 1.39 µM)
- MIC Coagulase Negative Staphylococcus (GC 4551) (Staphylococcus sp.; 5×10^5 CFU/mL): 8 µg/mL (≈ 5.55 µM)
- MIC Coagulase Negative Staphylococcus (GC 6257) (Staphylococcus sp.; 5×10^5 CFU/mL): 2 µg/mL (≈ 1.39 µM)
- MIC Staphylococcus aureus (ATCC 29213) (Staphylococcus sp.; 5×10^5 CFU/mL): 8 µg/mL (≈ 5.55 µM)
- MIC Staphylococcus aureus (GC 1131) (Staphylococcus sp.; 5×10^5 CFU/mL): 8 µg/mL (≈ 5.55 µM)
- MIC Staphylococcus aureus (GC 3051) (Staphylococcus sp.; 5×10^5 CFU/mL): 8 µg/mL (≈ 5.55 µM)
- MIC Staphylococcus aureus (GC 3053) (Staphylococcus sp.; 5×10^5 CFU/mL): 16 µg/mL (≈ 11.1 µM)
- MIC Staphylococcus aureus (GC 4541) (Staphylococcus sp.; 5×10^5 CFU/mL): 4 µg/mL (≈ 2.77 µM)
- MIC Staphylococcus aureus (GC 4542) (Staphylococcus sp.; 5×10^5 CFU/mL): 8 µg/mL (≈ 5.55 µM)
- MIC Staphylococcus aureus (GC 4544) (Staphylococcus sp.; 5×10^5 CFU/mL): 8 µg/mL (≈ 5.55 µM)
- MIC Staphylococcus aureus (GC 4545) (Staphylococcus sp.; 5×10^5 CFU/mL): 4 µg/mL (≈ 2.77 µM)
- MIC Staphylococcus aureus-SMITH (GC 4543) (Staphylococcus sp.; 5×10^5 CFU/mL): 8 µg/mL (≈ 5.55 µM)
- MIC Staphylococcus aureus (ATCC 29213) (Staphylococcus sp.; strain ATCC 29213): 8 µg/mL (≈ 5.55 µM)
- MIC Staphylococcus aureus (GC 1131) (Staphylococcus sp.; strain GC 1131): 8 µg/mL (≈ 5.55 µM)
- MIC Staphylococcus aureus (GC 3051) (Staphylococcus sp.; strain GC 3051): 8 µg/mL (≈ 5.55 µM)
- MIC Staphylococcus aureus (GC 3053) (Staphylococcus sp.; strain GC 3053): 16 µg/mL (≈ 11.1 µM)
- MIC Staphylococcus aureus (GC 4541) (Staphylococcus sp.; strain GC 4541): 4 µg/mL (≈ 2.77 µM)
- MIC Staphylococcus aureus (GC 4542) (Staphylococcus sp.; strain GC 4542): 8 µg/mL (≈ 5.55 µM)
- MIC Staphylococcus aureus-SMITH (GC 4543) (Staphylococcus sp.; strain GC 4543): 8 µg/mL (≈ 5.55 µM)
- MIC Staphylococcus aureus (GC 4544) (Staphylococcus sp.; strain GC 4544): 8 µg/mL (≈ 5.55 µM)
- MIC Staphylococcus aureus (GC 4545) (Staphylococcus sp.; strain GC 4545): 4 µg/mL (≈ 2.77 µM)
- MIC Coagulase Negative Staphylococcus (GC 4547) (Staphylococcus sp.; strain GC 4547): 4 µg/mL (≈ 2.77 µM)
- MIC Coagulase Negative Staphylococcus (GC 4548) (Staphylococcus sp.; strain GC 4548): 4 µg/mL (≈ 2.77 µM)
- MIC Coagulase Negative Staphylococcus (GC 4549) (Staphylococcus sp.; strain GC 4549): 2 µg/mL (≈ 1.39 µM)
- MIC Coagulase Negative Staphylococcus (GC 4551) (Staphylococcus sp.; strain GC 4551): 8 µg/mL (≈ 5.55 µM)
- MIC Coagulase Negative Staphylococcus (GC 6257) (Staphylococcus sp.; strain GC 6257): 2 µg/mL (≈ 1.39 µM)
- MIC Streptococcus pneumoniae (ATCC 6301) (Streptococcus sp.; strain ATCC 6301): 1 µg/mL (≈ 0.693 µM)
- MIC Streptococcus pneumoniae (GC 1894) (Streptococcus sp.; strain GC 1894): 0.5 µg/mL (≈ 0.347 µM)
- MIC Streptococcus pyogenes (GC 4563) (Streptococcus sp.; strain GC 4563): 2 µg/mL (≈ 1.39 µM)
- MIC Streptococcus agalactiae (GC 4564) (Streptococcus sp.; strain GC 4564): 4 µg/mL (≈ 2.77 µM)
- MIC Streptococcus pneumoniae (GC 4565) (Streptococcus sp.; strain GC 4565): 1 µg/mL (≈ 0.693 µM)
Structure (SMILES): Cc1cc(C2OCC3OC(OC4C(CO)OC(Oc5ccc(CC6NC(=O)C(C(C)c7ccccc7)NC(=O)CNC(=O)C(CO)NC(=O)C(C(O)C7CNC(=N)N7C7OC(CO)C(O)C(O)C7O)NC(=O)C(C(O)C7CNC(=N)N7)NC6=O)cc5)C(O)C4O)C(O)C(O)C3O2)ccc1[N+](=O)[O-] (stereo not drawn) [Example 151, Cyclo[glycyl-β-methylphenylalanyl-O-[4-O-[4,6-O-(3-methyl-4-nitrobenzylidene)hexonyranosyl]hexopyranosyl]tyrosyl-3-(2-iminoimidazolidin-4-yl)seryl-3-(3-hexopyranosyl-2-iminoimidazolidin-4-yl)serylseryl]]
- MIC Staphylococcus haemolyticus (GC 4546) (Staphylococcus sp.; 5×10^5 CFU/mL): 2 µg/mL (≈ 1.39 µM)
- MIC Staphylococcus haemolyticus (GC 4546) (Staphylococcus sp.; strain GC 4546): 2 µg/mL (≈ 1.39 µM)
